Measured values reported in US10570122B2, “Compounds with anti-tumoral activity” (AB Science, priority 2015, dated 2020).

Assays:
HL60 = experiment: CellTiter-Blue cell-based survival/proliferation assay, HL60; conditions: Homo sapiens, HL-60, Leukemia cell line HL60, 48 h, read-out: Anti-tumoral activity (measured IC50) HL60
Protocol: (§1) Cell-Based Proliferation Screening of Compounds
(§2) CellTiter-Blue cell-based survival/proliferation assay (Promega G8080) was performed on tumor cell lines. A total of 1·10^4 cells/well/50 μl were seeded in a 96-wells plate. Treatment was initiated by addition of a 2× drug solution of 1/10 serial dilutions ranging from 0 to 10 μM. Cells were grown for 48 h at 37° C. and then incubated with 10 μl/well of Promega CellTiter-Bleue reagent for 4 h at 37° C. The amount of resorufin dye formed was quantified by its fluorescence emission at 590 nm using a scanning multiwell spectrophotometer (OPTIMA, BMG labtech, France). A blank well without cells was used as a background control for the spectrophotometer.

OPM2 = experiment: CellTiter-Blue cell-based survival/proliferation assay, OPM2; conditions: Homo sapiens, OPM-2, Myeloma cell line OPM2, 48 h, read-out: Anti-tumoral activity (measured IC50) OPM2
Protocol: as §1, §2

A498 = experiment: CellTiter-Blue cell-based survival/proliferation assay, A498; conditions: Homo sapiens; A498 kidney tumor cell line, 48 h
Protocol: as §1, §2

A549 = experiment: CellTiter-Blue cell-based survival/proliferation assay, A549; conditions: Homo sapiens; A549 lung tumor cell line, 48 h
Protocol: as §1, §2

ACHN = experiment: CellTiter-Blue cell-based survival/proliferation assay, ACHN; conditions: Homo sapiens; ACHN kidney tumor cell line, 48 h
Protocol: as §1, §2

AGS = experiment: CellTiter-Blue cell-based survival/proliferation assay, AGS; conditions: Homo sapiens; AGS stomach tumor cell line, 48 h
Protocol: as §1, §2

BT20 = experiment: CellTiter-Blue cell-based survival/proliferation assay, BT20; conditions: Homo sapiens, BT-20; BT20 breast tumor cell line, 48 h
Protocol: as §1, §2

BXPC3 = experiment: CellTiter-Blue cell-based survival/proliferation assay, BXPC3; conditions: Homo sapiens, BXPC-3; BXPC3 pancreas tumor cell line, 48 h
Protocol: as §1, §2

CALU6 = experiment: CellTiter-Blue cell-based survival/proliferation assay, CALU6; conditions: Homo sapiens, Calu-6; CALU6 lung tumor cell line, 48 h
Protocol: as §1, §2

CLS354 = experiment: CellTiter-Blue cell-based survival/proliferation assay, CLS354; conditions: Homo sapiens, CLS-354; CLS354_4 head & neck tumor cell line, 48 h
Protocol: as §1, §2

DLD1 = experiment: CellTiter-Blue cell-based survival/proliferation assay, DLD1; conditions: Homo sapiens, DLD-1; DLD_1 colorectal tumor cell line, 48 h
Protocol: as §1, §2

DU145 = experiment: CellTiter-Blue cell-based survival/proliferation assay, DU145; conditions: Homo sapiens, DU-145; DU145 prostate tumor cell line, 48 h
Protocol: as §1, §2

H1299 = experiment: CellTiter-Blue cell-based survival/proliferation assay, H1299; conditions: Homo sapiens, NCI-H1299; H1299 lung tumor cell line, 48 h
Protocol: as §1, §2

HCT116 = experiment: CellTiter-Blue cell-based survival/proliferation assay, HCT116; conditions: Homo sapiens, HCT-116; HCT116 colorectal tumor cell line, 48 h
Protocol: as §1, §2

HEP2 = experiment: CellTiter-Blue cell-based survival/proliferation assay, HEP2; conditions: Homo sapiens, HEp-2; HEP2 head & neck tumor cell line, 48 h
Protocol: as §1, §2

HEPG2 = experiment: CellTiter-Blue cell-based survival/proliferation assay, HEPG2; conditions: Homo sapiens; HEPG2 liver tumor cell line, 48 h
Protocol: as §1, §2

HGC27 = experiment: CellTiter-Blue cell-based survival/proliferation assay, HGC27; conditions: Homo sapiens, HGC-27; HGC27 stomach tumor cell line, 48 h
Protocol: as §1, §2

MDAMB231 = experiment: CellTiter-Blue cell-based survival/proliferation assay, MDAMB231; conditions: Homo sapiens, MDA-MB-231; MDAMB231 breast tumor cell line, 48 h
Protocol: as §1, §2

MESSA = experiment: CellTiter-Blue cell-based survival/proliferation assay, MESSA; conditions: Homo sapiens, MES-SA; MESSA ovary tumor cell line, 48 h
Protocol: as §1, §2

PANC1 = experiment: CellTiter-Blue cell-based survival/proliferation assay, PANC1; conditions: Homo sapiens, PANC-1; PANC_1 pancreas tumor cell line, 48 h
Protocol: as §1, §2

PC3 = experiment: CellTiter-Blue cell-based survival/proliferation assay, PC3; conditions: Homo sapiens, PC-3; PC3 prostate tumor cell line, 48 h
Protocol: as §1, §2

PLCPRF5 = experiment: CellTiter-Blue cell-based survival/proliferation assay, PLCPRF5; conditions: Homo sapiens, PLC-PRF-5; PLC_PRF5 liver tumor cell line, 48 h
Protocol: as §1, §2

SW579 = experiment: CellTiter-Blue cell-based survival/proliferation assay, SW579; conditions: Homo sapiens; SW579 head & neck tumor cell line, 48 h
Protocol: as §1, §2

TOV112D = experiment: CellTiter-Blue cell-based survival/proliferation assay, TOV112D; conditions: Homo sapiens; TOV112D ovary tumor cell line, 48 h
Protocol: as §1, §2

[1] = system: panel of about 34 human tumor cell lines; experiment: Cell-based proliferation screening on panel of tumor cell lines; conditions: solid tumor cell line, cell line unknown, 48 h, read-out: IC50, solid tumor cell line of column 6 (last section of Table 3)
Protocol: Compounds of formula (I) were tested against a panel of about 34 human tumor cell lines representing 17 cancer type, namely leukemia (represented by 1 cell line), lymphoma (4 cell lines), myeloma (1 cell line), colorectal (2 cell lines), head and neck (3 cell lines), lung (3 cell lines), melanoma (2 cell lines), pancreas (2 cell lines), prostate (2 cell lines), ovary (2 cell lines) breast (2 cell lines), kidney (2 cell lines), stomach (2 cell lines), liver (2 cell lines), glioblastoma (2 cell lines), osteosarcoma (1 cell line), Ewing Sarcoma (1 cell line).
as §1, §2

Row | SMILES | IC50 (HL60) [nM] | IC50 (OPM2) [nM] | IC50 (A498) [nM] | IC50 (A549) [nM] | IC50 (ACHN) [nM] | IC50 (AGS) [nM] | IC50 (BT20) [nM] | IC50 (BXPC3) [nM] | IC50 (CALU6) [nM] | IC50 (CLS354) [nM] | IC50 (DLD1) [nM] | IC50 (DU145) [nM] | IC50 (H1299) [nM] | IC50 (HCT116) [nM] | IC50 (HEP2) [nM] | IC50 (HEPG2) [nM] | IC50 (HGC27) [nM] | IC50 (MDAMB231) [nM] | IC50 (MESSA) [nM] | IC50 (PANC1) [nM] | other results
1 | CCOCc1ccc(C)c(Nc2ncc(-c3ccc(-n4nccc4C)cc3)o2)c1 [Example 041, (5-Ethoxymethyl-2-methyl-phenyl)-{5-[4-(5-methyl-pyrazol-1-yl)-phenyl]-oxazol-2-yl}-amine] | 500 to 1000 | 500 to 1000 | > 1000 | > 1000 | > 1000 | > 1000 | > 1000 | > 1000 | > 1000 | > 1000 | > 1000 | > 1000 | > 1000 | > 1000 | > 1000 | > 1000 | > 1000 | > 1000 | > 1000 | > 1000 | IC50 (PC3): > 1000 nM; IC50 (PLCPRF5): > 1000 nM; IC50 (SW579): > 1000 nM; IC50 (TOV112D): 100 to 500 nM; IC50 [1]: 100 to 500 nM
2 | CCOCc1ccc(C)c(Nc2ncc(-c3ccc(-n4nc[nH]c4=O)cc3)o2)c1 [Example 043, 2-{4-[2-(5-Ethoxymethyl-(2-methyl-phenylamino))-oxazol-5-yl]-phenyl}-2,4-dihydro-[1,2,4]triazol-3-one] | 500 to 1000 | 500 to 1000 | > 1000 | > 1000 | > 1000 | > 1000 | > 1000 | > 1000 | > 1000 | > 1000 | > 1000 | > 1000 | > 1000 | > 1000 | > 1000 | > 1000 | > 1000 | > 1000 | > 1000 | > 1000 | IC50 (PC3): > 1000 nM; IC50 (PLCPRF5): > 1000 nM; IC50 (SW579): > 1000 nM; IC50 (TOV112D): 100 to 500 nM; IC50 [1]: 100 to 500 nM
3 | CCOCc1ccc(C)c(Nc2ncc(-c3ccc(N4C(=O)NC[C@H]4C)cc3)o2)c1 [Example 051, (R)-1-(4-(2-((5-(ethoxymethyl)-2-methylphenyl)amino)oxazol-5-yl)phenyl)-5-methylimidazolidin-2-one] | ≤ 100 | ≤ 100 | > 1000 | > 1000 | > 1000 | > 1000 | > 1000 | > 1000 | > 1000 | ≤ 100 | > 1000 | > 1000 | > 1000 | > 1000 | 100 to 500 | > 1000 | > 1000 | > 1000 | > 1000 | > 1000 | IC50 (PC3): ≤ 100 nM; IC50 (PLCPRF5): > 1000 nM; IC50 (SW579): > 1000 nM; IC50 (TOV112D): ≤ 100 nM; IC50 [1]: 100 to 500 nM
4 | CCOCc1ccc(C)c(Nc2ncc(-c3ccc(-n4c(C)n[nH]c4=O)cc3)o2)c1 [Example 052, 4-(4-(2-((5-(ethoxymethyl)-2-methylphenyl)amino)oxazol-5-yl)phenyl)-5-methyl-2,4-dihydro-3H-1,2,4-triazol-3-one] | > 1000 | > 1000 | > 1000 | > 1000 | > 1000 | > 1000 | > 1000 | > 1000 | > 1000 | > 1000 | > 1000 | > 1000 | > 1000 | > 1000 | > 1000 | > 1000 | > 1000 | > 1000 | > 1000 | > 1000 | IC50 (PC3): > 1000 nM; IC50 (PLCPRF5): > 1000 nM; IC50 (SW579): > 1000 nM; IC50 (TOV112D): > 1000 nM; IC50 [1]: > 1000 nM
5 | CCOCc1cc(COCC)cc(Nc2ncc(-c3ccc(N4CCNC4=O)cc3)o2)c1 [Example 053, 1-(4-(2-((3,5-bis(ethoxymethyl)phenyl)amino)oxazol-5-yl)phenyl)imidazolidin-2-one] | ≤ 100 | ≤ 100 | > 1000 | > 1000 | > 1000 | 100 to 500 | > 1000 | > 1000 | > 1000 | ≤ 100 | > 1000 | > 1000 | > 1000 | ≤ 100 | ≤ 100 | > 1000 | 100 to 500 | > 1000 | ≤ 100 | > 1000 | IC50 (PC3): ≤ 100 nM; IC50 (PLCPRF5): > 1000 nM; IC50 (SW579): > 1000 nM; IC50 (TOV112D): > 1000 nM; IC50 [1]: ≤ 100 nM
6 | CCOCc1ccc(C)c(Nc2ncc(-c3ccc(N4CCN(CCOC)C4=O)cc3)o2)c1 [Example 054, 1-(4-(2-((5-(ethoxymethyl)-2-methylphenyl)amino)oxazol-5-yl)phenyl)-3-(2-methoxyethyl)imidazolidin-2-one] | > 1000 | > 1000 | > 1000 | > 1000 | > 1000 | > 1000 | > 1000 | > 1000 | > 1000 | > 1000 | > 1000 | > 1000 | > 1000 | > 1000 | > 1000 | > 1000 | > 1000 | > 1000 | > 1000 | > 1000 | IC50 (PC3): > 1000 nM; IC50 (PLCPRF5): > 1000 nM; IC50 (SW579): > 1000 nM; IC50 (TOV112D): > 1000 nM; IC50 [1]: > 1000 nM
7 | CCOCc1ccc(C)c(Nc2ncc(-c3ccc(N4CCNC4=O)nc3)o2)c1 [Example 055, 1-(5-(2-((5-(ethoxymethyl)-2-methylphenyl)amino)oxazol-5-yl)pyridin-2-yl)imidazolidin-2-one] | ≤ 100 | ≤ 100 | > 1000 | ≤ 100 | > 1000 | > 1000 | > 1000 | > 1000 | > 1000 | ≤ 100 | > 1000 | > 1000 | > 1000 | ≤ 100 | ≤ 100 | > 1000 | 500 to 1000 | > 1000 | > 1000 | > 1000 | IC50 (PC3): ≤ 100 nM; IC50 (PLCPRF5): > 1000 nM; IC50 (SW579): ≤ 100 nM; IC50 (TOV112D): ≤ 100 nM; IC50 [1]: ≤ 100 nM
8 | CCOCc1cc(Nc2ncc(-c3ccc(N4CCNC4=O)cc3)o2)cc(OCCOC)c1 [Example 056, 1-(4-(2-((3-(ethoxymethyl)-5-(2-methoxyethoxy)phenyl)amino)oxazol-5-yl)phenyl)imidazolidin-2-one] | ≤ 100 | ≤ 100 | > 1000 | > 1000 | 100 to 500 | > 1000 | > 1000 | > 1000 | > 1000 | ≤ 100 | > 1000 | > 1000 | > 1000 | > 1000 | ≤ 100 | > 1000 | > 1000 | > 1000 | > 1000 | > 1000 | IC50 (PC3): ≤ 100 nM; IC50 (PLCPRF5): > 1000 nM; IC50 (SW579): ≤ 100 nM; IC50 (TOV112D): ≤ 100 nM; IC50 [1]: ≤ 100 nM
